Experimental data: the NIST ThermoML archive (doi:10.1016/j.jct.2016.03.038)

Assay: mn = molality of the nth substance listed, in mol/kg
Conditions: Liquid, isochoric method

C [methane] + CCCCCC
Conditions | mass density [kg/m3]
273.1 K, 2850 kPa, m1 = 2.157 | 655
273.1 K, 3620 kPa, m1 = 2.812 | 648
273.1 K, 4700 kPa, m1 = 3.805 | 638
273.1 K, 5670 kPa, m1 = 4.686 | 628
273.1 K, 6920 kPa, m1 = 6.031 | 616
273.1 K, 7900 kPa, m1 = 7.195 | 604
273.1 K, 9190 kPa, m1 = 8.724 | 596
283.15 K, 2500 kPa, m1 = 1.717 | 650
283.15 K, 3570 kPa, m1 = 2.568 | 640
283.15 K, 4740 kPa, m1 = 3.533 | 632
283.15 K, 5840 kPa, m1 = 4.499 | 620
283.15 K, 7010 kPa, m1 = 5.615 | 610
283.15 K, 8560 kPa, m1 = 7.345 | 594
293.15 K, 2360 kPa, m1 = 1.513 | 643
293.15 K, 3340 kPa, m1 = 2.229 | 635
293.15 K, 4410 kPa, m1 = 3.042 | 627
293.15 K, 5620 kPa, m1 = 4.008 | 615
293.15 K, 6860 kPa, m1 = 5.098 | 604
293.15 K, 8400 kPa, m1 = 6.638 | 590
